Results as given in ChEMBL document CHEMBL1201862, “PubChem BioAssay data set” (2004).
The source made the active and inactive calls.

Key:
[1] = molecular target: T1, Histone-lysine N-methyltransferase NSD2 (Homo sapiens, UniProt O96028); format: biochemical
T1 sequence (O96028 whole entry): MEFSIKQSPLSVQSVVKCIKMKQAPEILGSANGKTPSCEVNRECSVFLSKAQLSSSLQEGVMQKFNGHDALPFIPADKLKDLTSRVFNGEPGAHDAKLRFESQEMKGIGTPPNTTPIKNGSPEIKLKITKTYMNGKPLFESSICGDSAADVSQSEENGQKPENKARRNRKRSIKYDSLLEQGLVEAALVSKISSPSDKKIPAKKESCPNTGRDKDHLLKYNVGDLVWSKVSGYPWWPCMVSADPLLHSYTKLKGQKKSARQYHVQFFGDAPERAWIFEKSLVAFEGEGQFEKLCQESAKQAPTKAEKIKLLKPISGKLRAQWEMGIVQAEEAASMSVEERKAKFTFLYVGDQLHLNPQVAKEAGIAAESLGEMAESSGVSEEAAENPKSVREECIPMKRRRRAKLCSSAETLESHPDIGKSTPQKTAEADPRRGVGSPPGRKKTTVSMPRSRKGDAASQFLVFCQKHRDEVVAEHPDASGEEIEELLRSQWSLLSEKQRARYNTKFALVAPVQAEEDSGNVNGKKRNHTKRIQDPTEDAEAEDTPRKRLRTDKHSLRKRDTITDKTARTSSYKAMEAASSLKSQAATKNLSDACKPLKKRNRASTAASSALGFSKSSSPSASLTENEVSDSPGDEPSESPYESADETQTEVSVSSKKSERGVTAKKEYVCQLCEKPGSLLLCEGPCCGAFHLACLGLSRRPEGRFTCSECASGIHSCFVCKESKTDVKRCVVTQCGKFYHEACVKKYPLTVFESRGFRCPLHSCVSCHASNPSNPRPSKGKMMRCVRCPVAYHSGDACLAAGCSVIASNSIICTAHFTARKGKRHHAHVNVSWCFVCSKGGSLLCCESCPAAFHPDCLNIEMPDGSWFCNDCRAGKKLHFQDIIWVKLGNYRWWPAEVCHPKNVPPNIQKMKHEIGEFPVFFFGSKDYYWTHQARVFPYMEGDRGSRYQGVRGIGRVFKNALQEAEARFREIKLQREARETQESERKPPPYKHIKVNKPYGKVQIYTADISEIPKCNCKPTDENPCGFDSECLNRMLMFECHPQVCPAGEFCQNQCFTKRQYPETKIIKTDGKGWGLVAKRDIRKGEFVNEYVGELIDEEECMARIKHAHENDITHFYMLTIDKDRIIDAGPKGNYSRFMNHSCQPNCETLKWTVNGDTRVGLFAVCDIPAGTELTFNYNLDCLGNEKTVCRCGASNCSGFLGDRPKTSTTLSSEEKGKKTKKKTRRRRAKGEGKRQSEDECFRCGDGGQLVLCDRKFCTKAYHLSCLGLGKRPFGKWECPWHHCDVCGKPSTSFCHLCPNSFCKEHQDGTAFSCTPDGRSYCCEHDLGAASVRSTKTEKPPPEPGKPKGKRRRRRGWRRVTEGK

[2] = molecular target: T2, Beta-galactosidase (Escherichia coli, UniProt Q8VNN2); test: detection-enzyme interference by beta-gal modulators – biochemical, E. coli enzyme, set 3, artefact control for CCR6 antagonist project, dose response (AID 504712); format: functional
T2 sequence (Q8VNN2 whole entry): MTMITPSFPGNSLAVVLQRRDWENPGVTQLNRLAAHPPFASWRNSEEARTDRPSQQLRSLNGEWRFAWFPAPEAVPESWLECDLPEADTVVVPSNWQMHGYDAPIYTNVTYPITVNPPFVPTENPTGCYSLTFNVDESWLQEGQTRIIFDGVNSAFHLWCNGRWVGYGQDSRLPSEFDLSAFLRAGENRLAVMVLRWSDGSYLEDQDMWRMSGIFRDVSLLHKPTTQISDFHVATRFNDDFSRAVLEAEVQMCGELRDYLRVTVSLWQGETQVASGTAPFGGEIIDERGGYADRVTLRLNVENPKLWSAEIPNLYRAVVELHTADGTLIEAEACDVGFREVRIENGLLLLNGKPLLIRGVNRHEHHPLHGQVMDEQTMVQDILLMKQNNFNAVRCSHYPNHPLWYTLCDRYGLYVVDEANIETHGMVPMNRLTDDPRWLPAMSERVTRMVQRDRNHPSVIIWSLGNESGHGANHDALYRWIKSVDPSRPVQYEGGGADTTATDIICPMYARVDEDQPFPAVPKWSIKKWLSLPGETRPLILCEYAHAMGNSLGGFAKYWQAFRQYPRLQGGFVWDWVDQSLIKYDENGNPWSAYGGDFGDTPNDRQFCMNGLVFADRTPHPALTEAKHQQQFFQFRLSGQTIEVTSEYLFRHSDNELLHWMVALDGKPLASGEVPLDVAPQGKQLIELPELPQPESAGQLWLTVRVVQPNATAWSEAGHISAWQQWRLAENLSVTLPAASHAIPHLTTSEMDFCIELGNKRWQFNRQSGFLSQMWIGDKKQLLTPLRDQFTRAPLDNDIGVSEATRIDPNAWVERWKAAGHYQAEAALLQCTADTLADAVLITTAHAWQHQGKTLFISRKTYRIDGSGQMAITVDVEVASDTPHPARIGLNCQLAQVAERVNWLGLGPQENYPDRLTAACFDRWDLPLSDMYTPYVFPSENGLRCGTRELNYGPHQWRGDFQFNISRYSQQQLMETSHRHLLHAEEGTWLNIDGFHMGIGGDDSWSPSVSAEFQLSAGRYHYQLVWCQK

[3] = system: Vero; test: cells; format: functional; settings: Chlorocebus sabaeus
[4] = reduced cellular PGC1a acetyl-lysine signal – cell-based, cherry-picked samples, dose response (AID 720514); format: functional;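 note: potency may reflect raised or lowered acetylation signal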
[5] = Luminescence-based dose response cell-based high throughput screening assay for cytotoxic compounds using the IEC-6 intestinal epithelial cell line. [Related pubchem assays: 1858 (Summary AID.), 1825 (Counterscreen.), 1907 (Confirmation screen.)]; format: functional
[6] = viability of HCT116 lacking mutant beta-catenin – cell-based, human colon tumor, dose response (AID 1045); format: functional;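 note: HCT116 colon tumor cells with beta catenin knocked out; cells exposed to compound for 60 hours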
[7] = molecular target: Type-1 angiotensin II receptor (Homo sapiens, UniProt P30556); test: antagonism of angiotensin II type 1 receptor – cell-based, uHTS hits, selectivity assay for APJ receptor antagonist project, dose response (AID 463214); format: functional;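 note: antagonist potency against angiotensin II stimulated AT1 response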
Sequence of Type-1 angiotensin II receptor (P30556 whole entry, the tested form may be a part): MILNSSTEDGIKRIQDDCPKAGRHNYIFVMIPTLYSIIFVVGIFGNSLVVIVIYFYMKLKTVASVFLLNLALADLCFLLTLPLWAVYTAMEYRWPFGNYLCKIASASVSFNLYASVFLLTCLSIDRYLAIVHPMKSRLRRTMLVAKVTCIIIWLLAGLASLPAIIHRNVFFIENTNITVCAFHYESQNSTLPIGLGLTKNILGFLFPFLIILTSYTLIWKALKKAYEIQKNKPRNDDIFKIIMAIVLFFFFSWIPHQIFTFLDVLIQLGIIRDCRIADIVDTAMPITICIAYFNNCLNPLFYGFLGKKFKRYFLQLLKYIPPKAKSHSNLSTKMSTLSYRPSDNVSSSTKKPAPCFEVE

[8] = molecular target: Photoreceptor-specific nuclear receptor (Homo sapiens, UniProt Q9Y5X4); format: functional, cell-based;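 note: CHO-S cells with Gal4-NCOR and VP16-NR2E3 two-hybrid luciferase reporter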
Sequence of Photoreceptor-specific nuclear receptor (Q9Y5X4 whole entry, the tested form may be a part): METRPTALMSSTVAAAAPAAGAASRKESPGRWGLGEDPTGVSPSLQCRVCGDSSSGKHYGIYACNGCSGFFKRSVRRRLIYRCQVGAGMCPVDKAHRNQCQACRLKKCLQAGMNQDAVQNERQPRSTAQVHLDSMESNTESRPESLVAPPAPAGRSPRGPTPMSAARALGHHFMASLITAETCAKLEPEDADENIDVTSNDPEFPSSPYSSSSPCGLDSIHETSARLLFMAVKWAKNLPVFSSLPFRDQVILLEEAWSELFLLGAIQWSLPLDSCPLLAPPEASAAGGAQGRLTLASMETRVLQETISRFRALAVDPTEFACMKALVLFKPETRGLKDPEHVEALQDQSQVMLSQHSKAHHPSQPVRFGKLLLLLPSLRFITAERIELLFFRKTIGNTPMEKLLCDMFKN

[9] = molecular target: G2/mitotic-specific cyclin-B1 (Homo sapiens, UniProt P14635); test: Counterscreen assay for inhibitors of Wee1 degradation: dose response cell-based assay to identify inhibitors of cyclin B degradation. [Related pubchem assays: 1410, 1321 ]; format: functional
Sequence of G2/mitotic-specific cyclin-B1 (P14635 whole entry): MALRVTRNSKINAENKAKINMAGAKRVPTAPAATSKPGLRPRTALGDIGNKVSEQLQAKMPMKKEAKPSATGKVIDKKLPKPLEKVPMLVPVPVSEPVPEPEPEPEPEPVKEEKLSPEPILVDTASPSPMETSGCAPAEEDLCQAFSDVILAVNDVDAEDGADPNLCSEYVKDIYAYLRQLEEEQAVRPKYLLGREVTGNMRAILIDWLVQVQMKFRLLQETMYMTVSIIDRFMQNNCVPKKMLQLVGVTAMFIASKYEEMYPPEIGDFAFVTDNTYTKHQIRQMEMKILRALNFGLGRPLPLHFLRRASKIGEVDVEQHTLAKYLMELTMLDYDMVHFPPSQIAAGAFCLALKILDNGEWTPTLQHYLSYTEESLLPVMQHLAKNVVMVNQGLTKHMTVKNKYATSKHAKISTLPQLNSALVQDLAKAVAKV

[10] = molecular target: Sphingosine 1-phosphate receptor 2 (Homo sapiens, UniProt O95136); test: Dose Response Cell Based Assay for Antagonists of the S1P2 Receptor. [Related pubchem assays: 856, 736 ]; format: functional
Sequence of Sphingosine 1-phosphate receptor 2 (O95136 whole entry): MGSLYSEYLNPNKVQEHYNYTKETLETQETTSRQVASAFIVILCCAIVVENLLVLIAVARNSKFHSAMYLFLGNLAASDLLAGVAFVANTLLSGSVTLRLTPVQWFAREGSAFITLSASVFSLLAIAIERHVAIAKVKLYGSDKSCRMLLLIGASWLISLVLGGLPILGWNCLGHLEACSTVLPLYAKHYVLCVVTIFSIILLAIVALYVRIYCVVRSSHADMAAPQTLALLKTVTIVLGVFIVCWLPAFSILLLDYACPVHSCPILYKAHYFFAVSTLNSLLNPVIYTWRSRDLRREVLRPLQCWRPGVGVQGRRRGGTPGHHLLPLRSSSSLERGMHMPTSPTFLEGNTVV

[11] = system: HeLa; test: Cytotoxicity counterscreen assay for transcriptional activators of heat shock protein 70 (Hsp70). [Related pubchem assays: 1203, 1252 ]; format: functional; settings: Homo sapiens;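 note: cells exposed to compound for 16 hours before readout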
[12] = molecular target: Kappa-type opioid receptor (Homo sapiens, UniProt P41145); format: functional
Sequence of Kappa-type opioid receptor (P41145 whole entry): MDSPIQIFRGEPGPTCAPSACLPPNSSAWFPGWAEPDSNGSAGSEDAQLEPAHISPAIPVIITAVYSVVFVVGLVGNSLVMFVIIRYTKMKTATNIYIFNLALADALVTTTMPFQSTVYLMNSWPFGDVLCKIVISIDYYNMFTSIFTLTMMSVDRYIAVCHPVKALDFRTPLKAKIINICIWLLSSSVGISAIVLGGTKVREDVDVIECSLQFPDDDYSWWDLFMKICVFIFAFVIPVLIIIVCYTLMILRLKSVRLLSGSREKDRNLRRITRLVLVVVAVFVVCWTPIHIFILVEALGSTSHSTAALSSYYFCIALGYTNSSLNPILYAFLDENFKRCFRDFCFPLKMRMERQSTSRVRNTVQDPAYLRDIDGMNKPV

[13] = HEK-293T viability loss after treatment – luminescence, T-cell screen hits, cytotoxicity control for TCR NF-kB inhibitor project, dose response (AID 489026); format: functional, cell-based;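 note: cells exposed to compound about 14 hours before the viability readout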
[14] = system: CHO; test: CHO cell viability loss, potency – luminescence, cytotoxicity control for TLR9-MyD88 binding inhibitor project, dose response (AID 588339); format: functional, cell-based, hamster; settings: Cricetulus griseus;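 note: CHO cells stably coexpressing TLR9 and MyD88 fusions from primary screen; compound exposure lasted 48 hours before viability readout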
[15] = molecular target: T2, Beta-galactosidase; test: PubChem AID 485352; format: functional
[16] = molecular target: T3, Sentrin-specific protease 8 (Homo sapiens, UniProt Q96LD8); format: functional;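 note: kinetic enzyme assay of SENP8 cleaving a Nedd8 protein substrate, dose-response confirmation of screening hits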
T3 sequence (Q96LD8 whole entry): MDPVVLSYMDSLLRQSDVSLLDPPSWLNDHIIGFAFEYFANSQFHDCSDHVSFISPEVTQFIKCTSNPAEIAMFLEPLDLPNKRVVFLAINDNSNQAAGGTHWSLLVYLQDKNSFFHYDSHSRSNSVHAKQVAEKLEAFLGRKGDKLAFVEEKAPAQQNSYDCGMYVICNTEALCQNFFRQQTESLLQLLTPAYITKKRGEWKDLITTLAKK

Cc1ccc(S(=O)(=O)/N=C2\C=C(Nc3cccc(C(=O)O)c3)C(=O)c3ccccc32)c(C)c1
AC50 [1]: 255 nM (active) | IC50 [2]: 43500 nM (inactive) | CC50 [3]: > 25000 nM (active)

COc1ccc(NC(=O)/C(Cl)=C(/Cl)[S+]([O-])Cc2ccccc2)cn1 (stereo unspecified)
AC50 [4]: 1650 nM (active) | IC50 [5]: 1270 nM (active) | EC50 [6]: 185 nM (active) | IC50 [7]: 3930 nM (active) | IC50 [8]: 920 nM (active) | EC50 [9]: > 1840 nM (active) | IC50 [10]: 942 nM (active) | CC50 [11]: 1750 nM (active) | IC50 [12]: 7620 nM | IC50 [13]: 33000 nM (inactive) | IC50 [14]: 453 nM (active) | EC50 [15]: > 40000 nM (inactive)

Nc1ccc(N2CCCCC2)c2nonc12
IC50 [16]: 3280 nM (active)
